For data set [1], the system named is Leishmania (L.) infantum promastigotes. Nature of the data set: Activity against L. (L.) infantum promastigotes (MTT viability assay). The data set is classed as cell-based. As to conditions: 48 h at 24 °C, NA = not active, maximum tested concentration 100 μM; for EC50: read-out: EC50 Leishmania (L.) infantum Promastigote (95% CI). As for the experimental part:
(§1) Isolated promastigotes of Leishmania (L.) infantum (MHOM/BR/1972/LD) were maintained in M-199 medium supplemented with 10% calf serum and 0.25% hemin at 24 °C. The L. (L.) infantum (MHOM/BR/1972/LD) was maintained in hamsters (Mesocricetus auratus). Amastigotes were harvested from spleens of infected hamsters. The animals were infected with 10^8 amastigotes (300 μL) by the i.p. route. At 60 days post-infection, the animals were euthanized, and the spleens analyzed by light microscopy using Giemsa-stained smears. The parasite load was expressed in Leishman-Donovan units (i.e., the number of amastigotes per 1000 nucleated cells x organ weight [in g] × 2 × 10^5). Briefly, the spleen was macerated in a tissue grinder tube containing 5 mL of phosphate-buffered saline (PBS), whereas the amastigotes were separated by differential centrifugation to obtain a suspension of parasites. The first centrifugation of the spleen suspension (0.8 rpm) was employed to separate the red and white cells (pellet) from the amastigote forms (supernatant). Next, a second centrifugation of the supernatant from the previous step (2.8 rpm) was performed to concentrate the amastigote forms.
Promastigotes were counted in a Neubauer hemocytometer and seeded at 1 × 10^6/well to obtain a final volume of 150 μL. Controls with DMSO and without drugs were also performed. Miltefosine was dissolved in H2O at 30 mg/mL and used as a standard drug. […] Each point was tested in duplicate. The plate was incubated for 48 h at 24 °C and the viability of promastigotes was verified by morphology in light microscopy and by the MTT assay. Briefly, MTT ([…]) was dissolved in PBS, sterilized through 0.22 μm membranes and added (20 μL/well) for 4 h at 24 °C. Promastigotes were incubated without compounds and used as viability control. Formazan extraction was performed using 10% SDS for 18 h (80 μL/well) at 24 °C and the optical density (OD) was determined in a Multiskan MS (UNISCIENCE) at 550 nm. One hundred percent (100%) viability was expressed based on the OD of control promastigotes, after normalization.
(§2) The obtained data represent the mean and standard deviation of duplicate samples from two independent assays. EC50 values were calculated using sigmoid dose–response curves in the software GraphPad Prism 5.0; the 95% confidence intervals are included in parentheses. The Mann–Whitney test was used for the significance test (P value).
(In general: Tetrazolium dyes change colour on reduction, which living cells bring about.)

The subject of data set [2] is Leishmania (L.) infantum intracellular amastigotes. Nature of the data set: Activity against L. (L.) infantum intracellular amastigotes in mouse peritoneal macrophages (Giemsa counting, parasitic index). Format: cell-based. The settings on record: for EC50: read-out: EC50 Leishmania (L.) infantum Amastigote (95% CI). As for the experimental part: as §1
Peritoneal macrophages were collected from the peritoneal cavity of female BALB/c mice by washing with RPMI-1640 without phenol red, supplemented with 10% fetal bovine serum.
Amastigotes were isolated from spleens of previously infected hamsters, and separated by differential centrifugation. The tissue sample was macerated to break the cell membranes to release all cell contents including the amastigotes. Then the lysate was subjected to two repeated centrifugations (0.8 rpm followed 2.8 rpm) where density separation causes a sediment. The supernatant and the pellet were recovered via the first and second centrifugation, respectively. […] Non-internalized parasites were removed by washing once with medium, whereas tested compounds were incubated with infected macrophages for 96 h. Miltefosine was also used as a standard control drug. Subsequently, the cells were fixed with MeOH, stained with Giemsa and observed through a light microscope. The parasite burden was determined by the ratio of infected macrophages versus the mean number of amastigotes per macrophage out of 500 macrophages, i.e., the parasitic index (PI). […] Each point was tested in duplicate.
as §2

Data set [3] in a line: Cytotoxicity against mammalian cells (MTT assay). As to conditions: mouse.
The subject of a further data set is NCTC clone L-929 cells. Nature of the data set: Cytotoxicity against mammalian cells (MTT assay). As to conditions: CC50 against mammalian cells / EC50 against amastigotes.
Where [4] appears, read: Peritoneal macrophage, 96 h, intracellular amastigotes in BALB/c peritoneal macrophages, 96 h incubation, NA = not active, maximum tested concentration 100 μM.
Setting [5] is: intracellular amastigotes in BALB/c peritoneal macrophages, 96 h incubation, NA = not active, maximum tested concentration 100 μM.

“Also recorded” adds a separate entry of the source. Like-named read-outs stand apart in the source and are kept apart here.

Usually EC50 stands for the concentration giving half of the maximal effect. In general, CC50 refers to the concentration that lowers cell viability or growth by half. A low value points to harm at low concentration. For `C=CCc1cc(OC)c(OC)c(-c2cc(CC=C)cc(OC)c2OC)c1` [Compound 6, dehydrodieugenol dimethyl ether], the EC50 stood at 88.8 µM in data set [1] (48 h) and 13.7 µM in data set [2] (setting [4]). Moreover, in data set [3] (NCTC clone L-929 cells), the CC50 at 48 h was > 200 µM. In addition, in the data set with NCTC clone L-929 cells, the “SI Amastigote (selectivity index)” value is > 14.6.
For the compound `C=CCc1ccc(Oc2cc([C@H](O)C=C)cc(OC)c2O)c(OC)c1` [Compound 3, 1-[(7R)-hydroxy-8-propenyl]-3-[3′-methoxy-1′-(8′-propenyl)-phenoxy]-4-hydroxy-5-methoxybenzene], in data set [1], the “EC50 Leishmania (L.) infantum Promastigote (95% CI)” value is listed as “no activity”. Moreover, the “EC50 Leishmania (L.) infantum Amastigote (95% CI)” value in data set [2] (setting [5]) was “inactive”. In data set [3] (NCTC clone L-929 cells), the CC50 at 48 h was > 200 µM.
Consider `CCCCCCCCCCCCCCCCOP(=O)([O-])OCC[N+](C)(C)C` [miltefosine, reference compound], for which the EC50 in data set [1] (48 h) was 16.9 µM; in data set [1] it was 16.4 µM; in data set [2] (setting [4]), 16.4 µM; in data set [2] (setting [5]), 16.9 µM. Besides, in data set [3] (NCTC clone L-929 cells), the CC50 at 48 h was determined as 122 µM. For the same compound, the “SI Amastigote (selectivity index)” value in the data set on NCTC clone L-929 cells worked out at 7.2.
For `C=CCc1ccc(Oc2cc([C@H](O)C=C)cc(OC)c2OC)c(OC)c1` [Compound 4, 1-[(7R)-hydroxy-8-propenyl]-3-[3′-methoxy-1′-(8′-propenyl)-phenoxy]-4,5-dimethoxybenzene], the EC50 is 65.4 µM in data set [1] (48 h) and 67.7 µM in data set [2] (setting [4]). Moreover, the half-maximal cytotoxic concentration (CC50) at 48 h in data set [3] (NCTC clone L-929 cells) is > 200 µM. The “SI Amastigote (selectivity index)” value with NCTC clone L-929 cells is recorded as > 2.9.
As to `C=CCc1ccc(OC)c(OC)c1` [methyleugenol], the “EC50 Leishmania (L.) infantum Amastigote (95% CI)” value in data set [2] (96 h, 100 µM) is “no activity”; in data set [2] (setting [5]), “did not display activity”. Also, in data set [3], the CC50 at 48 h is > 200 µM.
As to `C=CCc1cc(OC)c(O)c(-c2cc(CC=C)cc(OC)c2O)c1` [Compound 5], the “EC50 Leishmania (L.) infantum Promastigote (95% CI)” value in data set [1] was “no activity”. Moreover, the “EC50 Leishmania (L.) infantum Amastigote (95% CI)” value in data set [2] (setting [5]) is “inactive”. Further, the CC50 at 48 h in data set [3] (NCTC clone L-929 cells) turned out to be 58.1 µM.
The matching figures for `C=CCc1ccc(O)c(OC)c1` [eugenol, reference compound]: “no activity”, “did not display activity; also recorded: no activity” and > 200 µM.

The values are drawn from paper PMC6161432 (The Journal of Venomous Animals and Toxins Including …, 2018).
